From US10201558B2, “Compositions of selenoorganic compounds and methods of use thereof” (Alltech, Inc., priority 2014, dated 2019)
Entries after “also recorded” stand apart in the source; their conditions may differ.

Key:
MAPK13 = assay: QRT-PCR of MAPK13 mRNA in control and FOXO4 KD IMR-32 cells; type: cell-based, human; settings: 24 hours
Protocol: (§1) IMR-32 cells were cultured on 12-well plates for 24 hours and then incubated with FOXO4 siRNA lentiviruses (SC-29650V, Santa Cruz) or control siRNA lentiviruses (sc-108080, Santa Cruz) in the presence of Polybrene (5 μg/ml, Santa Cruz) for 24 hours according to the manufacturer's protocol. These lentiviral siRNA-transfected cells were amplified in normal media for 3 days and then incubated with puromycin for 9-14 days to obtain the stable Control KD (stably transfected with the control siRNAs) and FOXO4KD (stably transfected with Foxo4 siRNAs) cells. These control and Foxo4 KD cells were subjected to cell survival, mitochondrial potential and RNA analysis.
(§2) Human IMR-32 cells were seeded on gelatinized 6-well (6.5×10^5 cells/well) or 24-well (1.3×10^5 cells/well) plates. Cells were treated with control (0 ppb) or various compounds for 6 hours or 24 hours. Total RNA from these cells was isolated using Trizol (Invitrogen) according to the manufacturer's protocol, and then incubated with DNase I to remove any potential contaminated genomic DNA. Then RNA samples were subjected to real-time PCR analysis using the Applied-Bioscience's RT kit and predesigned Taqman probes (Invitrogen), as described previously (Lan et al EMBO J 2003). The mRNA levels of UCP1, UCP2, UCP3, SLC25A27 (UCP4), SLC25A14 (UCP5), PSEN1, Nicastrin, GSK3B, MAPK11-14, PPARG, APOE, RCAN1, RCAN1.1, G6PC, INSR, IGF1R and FOXO4 were measured. Three to six samples were analyzed in each treatment group. Data were normalized by Actin B (ACTB) or Glyceraldehyde Phosphate Dehydrogenase (GAPDH) mRNA levels in each sample and are presented as mean±SEM of 3-6 samples.
(§3) Normal control cells and FOXO4KD cells were incubated with two doses of Compound C for 24 hours, and subjected to QRT-PCR analysis of the MAPK11-14 genes. The relative mRNA expression of all four MAPK genes in normal control IMR-32 cells was assessed. […] Data in Compound C-treated control and FOXO4 KD cells were normalized by their levels in control and FOXO4KD cells, respectively. Mean±SEM of indicated number of samples in the bar graphs. […]

MAPK14 = assay: QRT-PCR of MAPK14 mRNA in control and FOXO4 KD IMR-32 cells; type: cell-based, human; settings: 24 hours
Protocol: as §1, §2, §3

[1] = tested on: Notch signaling molecules; assay: Microarray expression profiles of 65 Notch signaling molecules in APP/PS1 mice; type: in vivo, mouse; settings: microarray heatmap, 5 control and 6 Compound C treated APP/PS1 mice
Protocol: To further investigate potential toxic effects of compound on the Notch signaling, microarray analysis was performed. Expression of Notch signaling molecules in the brains of Compound C-treated APP/PS1 mice was analyzed. […] Brain tissues were collected and subjected to microarray analysis. The transcription profiles of 65 Notch receptor signaling (based GO search) related genes were pulled out from the original microarray datasets, and then subjected to unsupervised hierarchical clustering analysis based on arrays (animals) using GeneSpring 13.0 software (Agilent Technologies, Inc.), to generate the heatmap of these gene expression (see FIG. 19). In the heatmap, gene expression levels (normalized by Actb) were shown in color intensity that reflect the expression changes compared to mean value of each gene, where blue, red or yellow colors represent decreased, increased or no change in the level of expression intensity, respectively. The dendogram on the top reflects the extent of similarity of expression profiles between animals.

phosphorylated-p38 = assay: Western blot of phosphorylated-p38 in APP/PS1 mouse brains; type: in vivo; settings: APP/PS1 mice, Compound C diet vs control diet
Protocol: Male APPΔNLh/ΔNLh×PS1P246 L/246 L knock-in model mice of Alzheimer's disease (abbreviated APP/PS1) were genotyped using standard primers for human APP (Amyloid Precursor Protein) and human PS1 (PSEN1). These APP/PS1 mice starting at the age of 6 months, were fed either a control diet containing normal levels of selenium (0.3 ppm from plant and inorganic selenium salt sources) or an experimental diet containing Compound C (the control diet to which was added 1 ppm Se from Compound C) for 6 months. […]
Frozen hemispheres of control- and Compound C-treated APP/PS1 mice were weighed and homogenized in PBS buffer, and then subsequently extracted with RIPA buffer (Sigma) containing complete proteinase and phosphatase inhibitors (Fisher Scientific). Protein levels in the samples were determined by micro-BCA protein analysis according to the manufacturer's protocol. […] Positive signals on the membrane blots were detected using Amersham's enhanced chemiluminescence Western Blotting Prime Detection reagents (GE healthcare Lifescience, Pittsburgh, Pa.). Images of these luminescence signals on the membrane blots were captured using the LI-COR Odyssey Fc Image system (Lincoln, Nebr.). Protein band densities in Western blots were determined using NIH Image J software, and then normalized by Actb levels in each samples to obtain the protein levels.

[2] = FOXO4KD cells, 75 ppb and 150 ppb

C[Se]C[C@H]1O[C@@H](n2cnc3c(N)ncnc32)C(O)C1O (stereo in doubt) [Compound C, 5′-deoxy-5′-methylselenoadenosine]
MAPK13 mRNA levels (MAPK13; [2]): none of the mRNA levels of the four MAPK genes in FOXO4KD cells were significantly altered
MAPK13 mRNA levels (MAPK13; control KD cells, 75 ppb): trend towards decreased
MAPK13 mRNA levels (MAPK13; control KD cells, 150 ppb): significantly decreased
MAPK14 mRNA levels (MAPK14; [2]): none of the mRNA levels of the four MAPK genes in FOXO4KD cells were significantly altered
MAPK14 mRNA levels (MAPK14; control KD cells, 75 ppb): trend towards decreased
MAPK14 mRNA levels (MAPK14; control KD cells, 150 ppb): significantly decreased
expression levels of Notch 1-4, RBPJ, Hey1, Hes1, Hey2 and other Notch signaling molecules [1]: did not have obvious change
phosphorylated-p38 protein levels in the brains (phosphorylated-p38): reduced; also recorded: decreased
